From patent publication US12201640B2, “19-nor C3,3-disubstituted C21-n-pyrazolyl steroids and methods of use thereof” (Sage Therapeutics, Inc., priority 2013, dated 2025)

Legend:
[1] = biological target: [35S]-TBPS binding, rat brain cortical membranes (GABA receptor complex); assay: Steroid inhibition of [35S]-TBPS binding; details: 3 nM [35S]-TBPS, 5 μM GABA
Protocol: Steroid Inhibition of TBPS Binding
[35S]-t-Butylbicyclophosphorothionate (TBPS) binding assays using rat brain cortical membranes in the presence of 5 μM GABA has been described (Gee et al, J. Pharmacol. Exp. Ther. 1987, 241, 346-353; Hawkinson et al, Mol. Pharmacol. 1994, 46, 977-985; Lewin, A. H et al., Mol. Pharmacol. 1989, 35, 189-194).
Briefly, cortices are rapidly removed following decapitation of carbon dioxide-anesthetized Sprague-Dawley rats (200-250 g). The cortices are homogenized in 10 volumes of ice-cold 0.32 M sucrose using a glass/teflon homogenizer and centrifuged at 1500×g for 10 min at 4° C. The resultant supernatants are centrifuged at 10,000×g for 20 min at 4° C. to obtain the P2 pellets. The P2 pellets are resuspended in 200 mM NaCl/50 mM Na-K phosphate pH 7.4 buffer and centrifuged at 10,000×g for 10 min at 4° C. This washing procedure is repeated twice and the pellets are resuspended in 10 volumes of buffer. Aliquots (100 μL) of the membrane suspensions are incubated with 3 nM [^35S]-TBPS and 5 μL aliquots of test drug dissolved in dimethyl sulfoxide (DMSO) (final 0.5%) in the presence of 5 μM GABA. The incubation is brought to a final volume of 1.0 mL with buffer. Nonspecific binding is determined in the presence of 2 μM unlabeled TBPS and ranged from 15 to 25%. Following a 90 min incubation at room temp, the assays are terminated by filtration through glass fiber filters (Schleicher and Schuell No. 32) using a cell harvester (Brandel) and rinsed three times with ice-cold buffer. Filter bound radioactivity is measured by liquid scintillation spectrometry. Non-linear curve fitting of the overall data for each drug averaged for each concentration is done using Prism (GraphPad). […] The concentration of test compound producing 50% inhibition (IC50) of specific binding and the maximal extent of inhibition (Imax) are determined for the individual experiments with the same model used for the overall data and then the means±SEM.s of the individual experiments are calculated.
Various compounds are or can be screened to determine their potential as modulators of [^35S]-TBPS binding in vitro. These assays are or can be performed in accordance with the above discussed procedures.

GABAA receptor α4β3δ = biological target: T1, GABAA receptor α4β3δ (Homo sapiens, UniProt P28472+P48169); assay: Patch clamp electrophysiology, manual patch in CHO cells; type: cell-based; details: 10 μM test article, GABA EC20 2 μM, read-out: GABA (α4β3δ) Manual patch in CHO, % efficacy at 10 μM
T1 construct: expressed in transfected cells; host or cells: CHO cells (transient, lipofection)
T1 sequence (P48169 36-554): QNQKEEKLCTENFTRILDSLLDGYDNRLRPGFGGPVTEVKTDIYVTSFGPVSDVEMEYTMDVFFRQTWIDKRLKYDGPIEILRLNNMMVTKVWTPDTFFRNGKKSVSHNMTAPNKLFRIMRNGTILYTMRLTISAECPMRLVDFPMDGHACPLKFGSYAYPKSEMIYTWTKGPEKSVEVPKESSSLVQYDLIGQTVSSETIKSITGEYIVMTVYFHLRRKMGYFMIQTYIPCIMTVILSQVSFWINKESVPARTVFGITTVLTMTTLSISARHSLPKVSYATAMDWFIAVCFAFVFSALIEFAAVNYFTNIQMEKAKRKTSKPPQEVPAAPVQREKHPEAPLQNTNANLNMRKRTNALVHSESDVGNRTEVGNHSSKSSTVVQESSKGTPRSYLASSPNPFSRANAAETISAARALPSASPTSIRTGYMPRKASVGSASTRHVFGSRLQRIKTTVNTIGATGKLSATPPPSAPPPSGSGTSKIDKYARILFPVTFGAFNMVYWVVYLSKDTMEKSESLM
T1 sequence (P28472 26-473): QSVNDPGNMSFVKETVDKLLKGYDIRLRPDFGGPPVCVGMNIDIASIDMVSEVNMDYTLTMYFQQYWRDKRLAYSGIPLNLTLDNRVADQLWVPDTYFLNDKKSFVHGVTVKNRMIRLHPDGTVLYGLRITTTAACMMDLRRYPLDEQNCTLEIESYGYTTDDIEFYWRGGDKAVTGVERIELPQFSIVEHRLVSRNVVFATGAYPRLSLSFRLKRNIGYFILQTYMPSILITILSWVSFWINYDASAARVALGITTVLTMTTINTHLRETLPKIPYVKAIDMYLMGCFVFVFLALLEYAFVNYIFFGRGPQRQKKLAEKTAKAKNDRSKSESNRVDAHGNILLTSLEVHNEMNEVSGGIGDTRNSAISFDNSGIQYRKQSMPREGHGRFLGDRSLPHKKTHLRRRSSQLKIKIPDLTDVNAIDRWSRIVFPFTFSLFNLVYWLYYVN
T1 sequence (O14764 25-452 partner): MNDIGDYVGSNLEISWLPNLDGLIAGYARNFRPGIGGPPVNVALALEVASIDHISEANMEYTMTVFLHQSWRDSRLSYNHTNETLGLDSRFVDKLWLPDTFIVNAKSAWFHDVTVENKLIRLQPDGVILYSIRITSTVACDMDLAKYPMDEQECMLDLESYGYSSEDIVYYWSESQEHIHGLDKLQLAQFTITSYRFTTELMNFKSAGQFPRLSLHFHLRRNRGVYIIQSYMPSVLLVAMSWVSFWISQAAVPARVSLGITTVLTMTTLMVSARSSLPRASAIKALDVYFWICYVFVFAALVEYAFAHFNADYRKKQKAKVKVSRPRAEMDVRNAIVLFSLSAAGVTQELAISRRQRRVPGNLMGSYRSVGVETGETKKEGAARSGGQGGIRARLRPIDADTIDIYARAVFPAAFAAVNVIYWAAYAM
Protocol: Patch Clamp Electrophysiology of Recombinant α1β2γ2 and α4β3δ GABAA Receptors
Cellular electrophysiology is used to measure the pharmacological properties of our GABAA receptor modulators in heterologous cell systems. Each compound is tested for its ability to affect GABA mediated currents at a submaximal agonist dose (GABA EC20=2 μM). LTK cells are stably transfected with the α1β2γ2 subunits of the GABA receptor and CHO cells are transiently transfected with the α4β3δ subunits via the Lipofecatamine method. Cells were passaged at a confluence of about 50-80% and then seeded onto 35 mm sterile culture dishes containing 2 ml culture complete medium without antibiotics or antimycotics. Confluent clusters of cells are electrically coupled (Pritchett et al., Science, 1988, 242, 1306-1308.). Because responses in distant cells are not adequately voltage clamped and because of uncertainties about the extent of coupling (Verdoorn et al., Neuron 1990, 4, 919-928.), cells were cultivated at a density that enables the recording of single cells (without visible connections to other cells).
Whole cell currents were measured with HEKA EPC-10 amplifiers using PatchMaster software or by using the high throughput QPatch platform (Sophion). Bath solution for all experiments contained (in mM): NaCl 137 mM, KCl 4 mM, CaCl2 1.8 mM, MgCl2 1 mM, HEPES 10 mM, D-Glucose 10 mM, pH (NaOH) 7.4. In some cases 0.005% cremophor was also added. Intracellular (pipette) solution contained: KCl 130 mM, MgCl2 1 mM, Mg-ATP 5 mM, HEPES 10 mM, EGTA 5 mM, pH 7.2. During experiments, cells and solutions were maintained at room temperature (19° C.-30° C.). For manual patch clamp recordings, cell culture dishes were placed on the dish holder of the microscope and continuously perfused (1 ml/min) with bath solution. After formation of a Gigaohm seal between the patch electrodes and the cell (pipette resistance range: 2.5 MΩ-6.0 MΩ; seal resistance range: >1 GΩ) the cell membrane across the pipette tip was ruptured to assure electrical access to the cell interior (whole-cell patch-configuration). For experiments using the QPatch system, cells were transferred as suspension to the QPatch system in the bath solution and automated whole cell recordings were performed.
Cells were voltage clamped at a holding potential of −80 mV. For the analysis of test articles, GABA receptors were stimulated by 2 μM GABA after sequential pre-incubation of increasing concentrations of the test article. Pre-incubation duration was 30 s and the duration of the GABA stimulus was 2 s. Test articles were dissolved in DMSO to form stock solutions (10 mM). Test articles were diluted to 0.01, 0.1, 1, and 10 μM in bath solution. All concentrations of test articles were tested on each cell. The relative percentage potentiation was defined as the peak amplitude in response to GABA EC20 in the presence of the test article divided by the peak amplitude in response to GABA EC20 alone, multiplied by 100.

SMILES | IC50 [1] | Emax at 10 µM (GABAA receptor α4β3δ)
C[C@@]1(O)CC[C@H]2[C@H](CC[C@@H]3[C@@H]2CC[C@]2(C)[C@@H](C(=O)Cn4cc(C#N)cn4)CC[C@@H]32)C1 [SA-4] | < 10 nM | 100 to 500%
Cc1cnn(CC(=O)[C@H]2CC[C@H]3[C@@H]4CC[C@@H]5C[C@](C)(O)CC[C@@H]5[C@H]4CC[C@]23C)c1 [SA-6] | 10 to 50 nM | > 500%
C[C@@]1(O)CC[C@H]2[C@H](CC[C@@H]3[C@@H]2CC[C@]2(C)[C@@H](C(=O)Cn4cccn4)CC[C@@H]32)C1 [SA-13] | 10 to 50 nM | > 500%
